{"source": "patent US10391113B2", "about": "“Compatible composition containing chinese medicine cichorium glandulosum boiss et hout as lipid-lowering active ingredient” (Nanjing Ruiying Runze Biopharmaceutical Technology Co., Inc., priority 2014, dated 2019)", "key": {"rat primary hepatocyte": {"system": "rat primary hepatocyte", "experiment": "Influence on the lipid droplet content of the rat primary hepatocyte (FFA hyperlipidemia model, nile red, flow detection)", "assay_type": "cell-based, SD rat", "settings": "administration dose 20 μM total molar concentration; 1 mmol/L FFA; 24 hours; means ± s.d., n = 3; versus model group", "procedure": "The hepatocyte is taken out from the SD rat liver by using Seglen two steps in situ circulatory perfusion method, filtered through 100-mesh sieve, centrifugated for 3 min at 500 rpm and 4° C., and the supernatant is discarded, and the hepatocyte is washed three times in the same way. The number of living cells and the cell survival rate is obtained by counting the cell, and the cells are added in the plate at 1.0*10^6 cell/mL medium. The cells are cultured for 24 hours, then the supernatant is discarded, and the cells are washed with PBS three times. […] Other groups are adjusted to a final volume of 2 mL with Williams'E medium without serum, and 24 hours after administration, washed with PBS in 37° C. three times, digested by the pancreatin, centrifugated, the supernatant is discarded, the cells are resuspended with PBS, and the final concentration is adjusted to 1 μg/mL by adding nile red dye. […] Using D-Optimal experimental design method in the mixture experimental design, calculation is carried out by using response surface analysis method and using Design expert8.05b software. Choosing D-optimal in the Mixture option, analysis is carried out by entering compatible ratio of the compatible groups and the test results in Table 2."}, "HepG2 cell": {"system": "HepG2 cell", "experiment": "Lipid droplet content of free fat acid (FFA) induced HepG2 cell (nile red, flow detection)", "assay_type": "cell-based", "settings": "24 hours, geometric median of fluorescence intensity, means ± s.d., n = 3, model group 222.64 ± 8.34", "procedure": "Experiment method: the HepG2 cells in the logarithmic growth phase are taken having a growth density of 80%, and inoculated into 6-well plate at 1×10^5 per well. After culturing cells for 24 hours, the supernatant is discarded, and the cells are washed with PBS three times. […] Except for the blank control group, all of the other groups are added FFA having a final concentration of 1 mmol/L, and the remaining volume is completed to 2 mL with the DMEM medium containing 10% fetal bovine serum, 24 hours after administration, washed with PBS in 37° C. three times, digested by the pancreatin, centrifugated, the supernatant is discarded, the cells are resuspended with PBS, and the final concentration is adjusted to 1 μg/mL by adding nile red dye."}, "[1]": {"system": "high fat diet induced rat lipid metabolism disorder model", "experiment": "High fat diet induced rat lipid metabolism disorder model", "assay_type": "in vivo, SD rat", "settings": "0.1 g/kg by gavage once a day, high fat feedstuff, after the eighth week", "procedure": "Experiment method: 90 SD rats are normally fed for 1 week, the normal group of 10 rats are fed common feedstuff, and others are fed high fat feedstuff (basic feedstuff 88%, lard 10% and cholesterol 2%). 4 weeks later, the rats fed high fat feedstuff are randomly divided into 5 groups, each group of 10. […] The rats in the bezafibrate group are fed bezafibrate 100 mg/kg at the same time as the high fat feedstuff feeding respectively. The tested sample groups are given 100 mg/kg by gavage respectively at the same time as the high fat feedstuff feeding, once a day. The experiment animals can freely drink water and take food, and are fed separately in cages in light and dark for 12 hours, respectively, in a SPF grade animal lab under 25±2° C. After the eighth week of the experiment, the rats are fasted for 16 hours, collected blood from arteria cruralis, sacrificed by dislocating the cervical vertebra, taking out the liver, and preparing serum and liver tissue homogenate in conventional method. The triglyceride (TG), total cholesterol (TC), high density lipoprotein (HDL-C), low density lipoprotein (LDL-C), glutamic-pyruvic transaminase (ALT) and glutamic-oxalacetic transaminase (AST) content in the serum and liver is detected."}, "[2]": {"settings": "administration dose 20 μM, 1 mM FFA"}}}
{"smiles": "O=c1c(O)c(-c2ccc(O)c(O)c2)oc2cc(O)cc(O)c12", "note": "[quercetin]", "values": [{"measurement": "decrease of the lipid droplet content (%)", "setting": "rat primary hepatocyte", "value": "7.01 ± 1.03", "unit": "%"}, {"measurement": "lipid droplet content", "setting": "HepG2 cell; [2]", "value": "198.25 ± 6.04"}]}
{"smiles": "O=C(O)[C@H]1O[C@@H](Oc2c(-c3ccc(O)c(O)c3)oc3cc(O)cc(O)c3c2=O)[C@H](O)[C@@H](O)[C@@H]1O", "note": "[quercetin-3-O-β-D-glucuronide]", "values": [{"measurement": "decrease of the lipid droplet content (%)", "setting": "rat primary hepatocyte", "value": "8.07 ± 0.92", "unit": "%"}, {"measurement": "lipid droplet content", "setting": "HepG2 cell; [2]", "value": "153.38 ± 2.88"}]}
{"smiles": "CC(C)(Oc1ccc(CCNC(=O)c2ccc(Cl)cc2)cc1)C(=O)O", "note": "[bezafibrate]", "values": [{"measurement": "Weight", "setting": "[1]", "value": "433.15 ± 24.53", "unit": "g"}, {"measurement": "ALT (U/L)", "setting": "[1]; listed under liver", "value": "107.9 ± 14.12", "unit": "U/L"}, {"measurement": "AST (U/L)", "setting": "[1]; listed under liver", "value": "217.8 ± 33.93", "unit": "U/L"}, {"measurement": "liver TC (mg/g liver)", "setting": "[1]; liver", "value": "33 ± 12.23", "unit": "mg/g liver"}, {"measurement": "liver TG (mg/g liver)", "setting": "[1]; liver", "value": "186 ± 37.92", "unit": "mg/g liver"}, {"measurement": "serum HDL-C", "setting": "[1]; serum", "value": "1.58 ± 0.29", "unit": "mmol/L"}, {"measurement": "serum LDL-C", "setting": "[1]; serum", "value": "0.54 ± 0.30", "unit": "mmol/L"}, {"measurement": "serum TC", "setting": "[1]; serum", "value": "1.58 ± 0.17", "unit": "mmol/L"}, {"measurement": "serum TG", "setting": "[1]; serum", "value": "0.88 ± 0.19", "unit": "mmol/L"}, {"measurement": "lipid droplet content", "setting": "HepG2 cell; administration dose 100 μM", "value": "178.84 ± 2.84"}]}
{"smiles": "O=c1c(O[C@@H]2O[C@H](CO)[C@@H](O)[C@H](O)[C@H]2O)c(-c2ccc(O)c(O)c2)oc2cc(O)cc(O)c12", "note": "[isoquercitrin]", "values": [{"measurement": "decrease of the lipid droplet content (%)", "setting": "rat primary hepatocyte", "value": "7.52 ± 1.63", "unit": "%"}, {"measurement": "lipid droplet content", "setting": "HepG2 cell; [2]", "value": "200.61 ± 8.43"}]}
